We go through four compounds from US20170348253A1, “Treatment of Drug-Resistant Microbial Infections” (NovaBiotics Limited, priority 2016, published 2017).

Test [1] deals with P. aeruginosa strain LES431. As to the kind of experiment: Neutropenic mouse thigh model of infection. Type of test: in vivo, Pseudomonas aeruginosa. The following applies: for Log10 reduction in cfu/g: neutropoenic mice, thigh, 24 h post-treatment, compared with vehicle control. As for the experimental part: Mouse thigh infection model experiments were conducted at Eurofins Panlabs, (Taipei, Taiwan). Mice were rendered neutropoenic with cyclophosphamide prior to infection. They were separated into groups of 5 animals per treatment. […] Animals were sacrificed 25 h post infection (24 h post-treatment) and thigh weights and cfu/g of tissue were calculated and recorded.

The test system of a further test is Staphylococcus aureus. Nature of the test: Aberdeen clinical study: sputum microbiology, resistance profile of predominant pathogen. The class given is in vivo. Also noted: key: MRSA = Methicillin-resistant Staphylococcus aureus; MSSA = Methicillin-sensitive Staphylococcus aureus; PR = pan-resistant; S = sensitive; Cip^R = ciprofloxacin-resistant; Cip^S = ciprofloxacin sensitive. The following applies: Patient 1, stable CF lung disease, oral 450 mg once daily increased weekly to four times daily; pre trial MRSA. As to the method:
(§1) Patients≧18 years of age, weighing>50 kg with stable CF lung disease were commenced on oral cysteamine bitartrate (Cystagon®) 450 mg once daily, increased weekly to 450 mg four times daily. Serial plasma cysteamine concentrations were measured for 24 h after the first dose. Participants were reviewed every week for 6 weeks, except at 4 weeks. Plasma cysteamine concentrations were measured 8 h after dosing when reviewed at 1, 2 and 3 weeks and 6 h after dosing when reviewed at 5 weeks. Sputum cysteamine concentration was also quantified at the 5-week assessment. Routine monitoring of clinical microbiology and reporting of speciation and resistance profile of major colonising microorganisms from patients continued as normal, prior to, during where necessary and after the trial by the hospital microbiology laboratory.

A further test relates to P. aeruginosa. Described as above. Type of test: in vivo, Pseudomonas aeruginosa. The note with it: oral 450 mg once daily increased weekly to four times daily. As to the method: as §1

As for `O=C(O)c1cn(C2CC2)c2cc(N3CCNCC3)c(F)cc2c1=O` [Ciprofloxacin], in test [1] (15 mg/kg i.v.), the “Log10 reduction in cfu/g” value is 2.02 log10 cfu/g.

`NCCS` [Cysteamine, cysteamine]: the “Effect of cysteamine on the activity of ciprofloxacin” value in test [1] (neutropenic mouse thigh model, cysteamine 1.25 mg/kg with ciprofloxacin 15 mg/kg) is “chemopotentiates the activity of ciprofloxacin”. For the same compound, the “Log10 reduction in cfu/g” value in test [1] (1.25 mg/kg i.v.) is reported as 0.74 log10 cfu/g.

For the compound `NCCS.O=C(O)C(O)C(O)C(=O)O` (stereo not shown) [cysteamine bitartrate], the “Post trial microbiology (predominant pathogen in sputum)” value in the test on Staphylococcus aureus is recorded as “MSSA”; in the test on P. aeruginosa (Patient 2, stable CF lung disease, pre trial PR P. aeruginosa), “S P. aeruginosa”; in the test on P. aeruginosa (Patient 3, stable CF lung disease, pre trial Cip^R P. aeruginosa) it was “Cip^S P. aeruginosa”.

As to Colistin, in test [1] (5 mg/kg SC), the “Log10 reduction in cfu/g” value stood at 5.02 log10 cfu/g.
